Results reported in patent US20080287398A1, “COLD MENTHOL RECEPTOR-1 ANTAGONISTS” (priority 2007, published 2008).

How the values were obtained:
male SD rats = assay: Chronic constriction injury (CCI) model of neuropathic pain, acetone-induced hypersensitivity; assay type: in vivo; conditions: rat; for ED50: po
Procedure: Through the mesh floor a series of five applications of acetone (0.05 mL/application) was sprayed onto the bottom of the paw using a multidose syringe device. A positive response took the form of an abrupt withdrawal or lifting of the paw. The percentage of positive responses from the five trials represented the individual's overall response that was then averaged over the entire treatment group. […] An ascending dose response relationship (as in Table 10 below) was generated by addition of successive doses of test compound followed by re-assessment of behavior.

rats = assay: Reversal of icilin-induced behaviors (wet-dog shakes) in rats; assay type: in vivo; conditions: rat, 1 h post-icilin
Procedure: In this paradigm, icilin-induced shaking was counted for 10 minutes followed by administration of a compound of Formula (I). The diminution of shaking behavior is represented as a percent inhibition relative to icilin-induced shakes in the absence of test compound administration, as described by the following formula: % Inhibition=[1−(WDS count following test compound dose/WDS count prior to test compound dose)]×100.

canine TRPM8 [1] = target: T1, canine TRPM8 (Canis lupus familiaris, UniProt Q1A7N1); assay: In vitro canine TRPM8 functional assay (Ca2+-sensitive dye, FLIPR/FDSS, icilin activation); assay type: cell-based; conditions: HEK293 cells expressing canine TRPM8, icilin activation; for inhibition at 0.5 µM: HEK293, 0.5 μM compound, read-out: % I (0.5 μM); for IC50: eight-point dose-response, read-out: IC50
T1 construct: expressed in transfected cells
T1 sequence (Q1A7N1 1-1104): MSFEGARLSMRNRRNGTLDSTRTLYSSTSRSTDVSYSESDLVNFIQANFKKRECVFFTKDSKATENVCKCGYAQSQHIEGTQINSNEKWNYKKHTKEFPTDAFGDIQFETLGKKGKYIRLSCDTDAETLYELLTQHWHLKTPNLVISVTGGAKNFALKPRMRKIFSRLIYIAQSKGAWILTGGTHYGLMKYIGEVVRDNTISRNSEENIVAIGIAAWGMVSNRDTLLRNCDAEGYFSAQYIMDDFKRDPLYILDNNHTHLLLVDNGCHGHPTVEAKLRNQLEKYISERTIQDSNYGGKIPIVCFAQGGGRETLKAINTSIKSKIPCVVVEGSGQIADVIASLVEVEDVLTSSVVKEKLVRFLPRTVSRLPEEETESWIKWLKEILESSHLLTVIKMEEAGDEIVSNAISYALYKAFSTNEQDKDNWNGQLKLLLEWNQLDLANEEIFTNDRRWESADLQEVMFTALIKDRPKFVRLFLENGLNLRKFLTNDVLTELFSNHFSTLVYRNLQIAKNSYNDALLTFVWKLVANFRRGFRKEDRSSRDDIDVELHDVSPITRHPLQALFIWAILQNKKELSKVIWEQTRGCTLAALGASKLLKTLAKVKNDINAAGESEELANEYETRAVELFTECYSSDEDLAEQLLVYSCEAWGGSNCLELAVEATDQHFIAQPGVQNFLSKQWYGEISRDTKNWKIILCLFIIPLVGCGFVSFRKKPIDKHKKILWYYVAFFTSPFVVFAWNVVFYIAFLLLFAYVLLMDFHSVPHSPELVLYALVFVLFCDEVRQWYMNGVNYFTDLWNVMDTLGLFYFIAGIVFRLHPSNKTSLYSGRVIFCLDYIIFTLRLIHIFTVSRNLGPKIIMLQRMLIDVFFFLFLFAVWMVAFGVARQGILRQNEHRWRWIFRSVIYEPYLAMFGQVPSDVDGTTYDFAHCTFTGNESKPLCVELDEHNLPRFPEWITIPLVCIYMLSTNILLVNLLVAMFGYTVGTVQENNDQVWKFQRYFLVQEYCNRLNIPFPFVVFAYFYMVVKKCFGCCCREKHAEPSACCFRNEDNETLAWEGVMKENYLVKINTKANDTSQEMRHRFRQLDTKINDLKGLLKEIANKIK
Outline: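 HEK293 cells stably expressing canine TRPM8, loaded with Calcium 3 dye, preincubated with compound for 5 min before icilin at a concentration giving ~80% maximal response. Ca2+ fluorescence by FLIPR or FDSS; basal-subtracted, normalized to % maximal response, quadruplicate wells, sigmoidal fit for EC50/IC50.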

canine TRPM8 [2] = target: T1, canine TRPM8; assay: TRPM8 patch clamp assay (whole-cell, HEK293 cells); assay type: cell-based
Procedure: For patch clamp experiments, HEK293 cells stably transfected with canine TRPM8 were cultured in DMEM supplemented with 10% fetal bovine serum, 100 units/ml penicillin, 100 μg/ml streptomycin and 1 mg/ml G418. Cells were maintained at 37° C. and in 5% CO2.
The extracellular solution contained (in mM): NaCl, 132; EGTA, 1; KCl, 5.4; MgCl2, 0.8; HEPES, 10; glucose, 10; pH=7.4. Recordings were performed using the conventional whole-cell patch clamp technique, 1-2 days after plating cells onto glass coverslips at densities appropriate for single cell recording. Currents were amplified by a patch clamp amplifier and filtered at 2 kHz (Axopatch 200B, Molecular Devices, Union City, Calif.). Menthol (100 μM) was applied to the cell at 0.5 ml/min via a gravity-fed perfusion system. Recordings involving menthol activation were performed at 22° C.
In experiments where temperatures were varied, temperature ramps were generated by cooling the perfusate in an in-line cooler (Model SC-20, Warner Instruments, Hamden, Conn.) controlled by a temperature controller (Model CL-100, Warner Instruments). The temperature in the vicinity of the recorded cell was measured with a custom-made miniature thermo-microprobe connected to a monitoring thermometer (Model TH-8, Physitemp, Clifton, N.J.), and sampled using Digidata 1322A and pClamp 9.0 (Molecular Devices), as were the currents concurrently measured in the whole-cell patch clamp mode. The current was continuously sampled (at 100 Hz) at a holding potential of −60 mV.
Compounds were diluted from 10 mM DMSO stocks (stored at −20° C.) into an extracellular solution either containing 100 μM menthol or subjecting to cooling. Increasing concentrations of a compound were applied to a cell in a cumulative manner and concentration-dependent responses were measured after steady-state activation was achieved by either 100 μM menthol or cooling to 10° C. A saturating concentration of a reference antagonist was applied at the end of an experiment (either in the presence of 100 μM menthol or 10° C. temperature) to establish the baseline from which all the other measurements were subtracted.
Percentage inhibition by a compound was calculated as follows: 100×(1−Icomp/I0); where Icomp and I0 are steady-state current amplitudes in either the presence or absence of a concentration of the compound.

[3] = IC50, mode of activation Menthol (100 μM), HEK293 cells stably transfected with canine TRPM8, 100 μM menthol, 22° C.

## CC(C)OP(=O)(OC(C)C)[C@@H](Cc1ccc(F)c(F)c1)c1sc2ccccc2c1Br [Cpd 234, (S)-[1-(3-Bromo-benzo[b]thiophen-2-yl)-2-(3,4-difluoro-phenyl)-ethyl]-phosphonic acid diisopropyl ester]
Male SD rats; preRx 1 hr
  ED50: 14.8 mg/kg
Male SD rats; 3 mg/kg p.o., preRx 1 hr
  % of Allodynic Baseline: 16.7%
Male SD rats; 3 mg/kg p.o., preRx 2 hr
  % of Allodynic Baseline: 10.0%
Male SD rats; 10 mg/kg p.o., preRx 1 hr
  % of Allodynic Baseline: 51.7%
Male SD rats; 30 mg/kg p.o., preRx 1 hr
  % of Allodynic Baseline: 59.6%
Male SD rats; 30 mg/kg p.o., preRx 2 hr
  % of Allodynic Baseline: 56.7%
Male SD rats; 100 mg/kg p.o., preRx 1 hr
  % of Allodynic Baseline: 83.1%
Male SD rats; 100 mg/kg p.o., preRx 2 hr
  % of Allodynic Baseline: 93.3%
rats; po
  ED50: 28.5 mg/kg
rats; 10 mg/kg p.o.
  % Inhibition: 24.4%
rats; 30 mg/kg p.o.
  % Inhibition: 56.1%
rats; 100 mg/kg p.o.
  % Inhibition: 75.1%
Canine TRPM8 [1]
  inhibition at 0.5 µM: 104%
  IC50: 29 nM
Canine TRPM8 [2]; IC50, mode of activation Cold (10° C.), HEK293 cells stably transfected with canine TRPM8, cooling to 10° C.
  IC50: 1.6 nM
Canine TRPM8 [2]; [3]
  IC50: 4.7 nM

## CC(C)OP(=O)(OC(C)C)[C@@H](Cc1ccc(F)c(C(F)(F)F)c1)c1sc2ccccc2c1Br [Cpd 242, (S)-[1-(3-Bromo-benzo[b]thiophen-2-yl)-2-(4-fluoro-3-trifluoromethyl-phenyl)-ethyl]-phosphonic acid diisopropyl ester]
Male SD rats; preRx 3 hr
  ED50: 18 mg/kg
Male SD rats; 3 mg/kg p.o., preRx 3 hr
  % of Allodynic Baseline: 15.0%
Male SD rats; 10 mg/kg p.o., preRx 3 hr
  % of Allodynic Baseline: 30.0%
Male SD rats; 30 mg/kg i.p., preRx 2 hr
  % of Allodynic Baseline: 63.3%
Male SD rats; 30 mg/kg p.o., preRx 3 hr
  % of Allodynic Baseline: 66.7%
Male SD rats; 100 mg/kg p.o., preRx 3 hr
  % of Allodynic Baseline: 86.7%
rats; 30 mg/kg p.o.
  % Inhibition: 79.9%
Canine TRPM8 [1]
  inhibition at 0.5 µM: 103%
  IC50: 9 nM
Canine TRPM8 [2]; [3]
  IC50: 0.4 nM
